Data as given in US20250320252A1 (The Scripps Research Institute, priority 2021, published 2025).
“And” between values parts separate entries of the source, which are not always exact repeats. Equal values may be shown once. Read-outs that look alike come from different tables or passages of the source.

Assays:
[1] = Plasma stability, 24 h, LC-MS, mouse plasma; assay type: in vitro ADME
Description: (§1) To investigate the stability of the conjugates in mouse, cyno monkey, dog, and human plasma, conjugate mCMD307 was incubated in plasma for 24 h (Table 13). At certain time intervals a sample of plasma was taken and plasma proteins precipitated. Samples were analyzed using LC-MS.

[2] = assay type: in vitro ADME, cynomolgus monkey
Description: as §1

in vitro = in vitro ADME; settings: dog, human, plasma
Description: as §1

[3] = cynomolgus monkey, in vivo
[4] = Pharmacokinetics in CD-1 mouse, plasma concentration by LC-MS; assay type: in vivo
Description: The peptide plasma concentration at various time points was determined using LC-MS.

[5] = dog, in vivo
normal mice = assay: Oral glucose tolerance test 12 h after single SC dose in mice; assay type: in vivo, mouse; settings: 10 nmol/kg S.C., 12 h before glucose
Description: Mice were fasted overnight prior to the oral glucose tolerance test (OGTT), and then dosed with peptide. After 12 h, 1 g of glucose solution per kg body weight was administered orally, and mouse tail blood glucose levels were measured before (0 min) and after glucose challenge for 90 minutes (with measurements at 15, 30, 60 and 90 minutes) (FIG. 16). The data were compared using the unpaired Student's t test. Where appropriate, data were compared using repeated measures or one-way analysis of variance, followed by the Student-Newman-Keuls post hoc test. Calculations for […] (mg/dL*min) were also analyzed and graphed in FIG. 16. […]. […].

wild-type mice = assay: Oral glucose tolerance test 2 h and 96 h post injection in wild-type mice; assay type: in vivo, mouse; settings: 10 nmol/kg s.c., vs vehicle
Description: Data are means±SE, n=6 per group.
Oral glucose tolerance test (OGTT) Female Charles River CD-1 mice were fasted overnight and then administrated 150 μL of each peptide in PBS (pH=8.2) by i.v. or s.c. route.

[6] = 1 mg/kg I.V., individual animals, 1 mg/kg
[7] = 1 mg/kg S.C., individual animals, 1 mg/kg

CC[C@H](C)[C@H](NC(=O)[C@H](CO)NC(=O)[C@H](Cc1ccc(O)cc1)NC(=O)[C@H](CC(=O)O)NC(=O)[C@H](CO)NC(=O)[C@@H](NC(=O)[C@H](Cc1ccccc1)NC(=O)[C@@H](NC(=O)CNC(=O)[C@H](CCC(=O)O)NC(=O)C(C)(C)NC(=O)[C@@H](N)Cc1ccc(O)cc1)[C@@H](C)O)[C@@H](C)O)C(=O)N[C@@H](Cc1ccc(O)cc1)C(=O)N[C@H]1CCCCNC(=O)CN(C(=O)CCNC(=O)CCOCCOCCOCCNC(=O)CCCCCCCCCCCCCCCCC(=O)O)CC(=O)NCCCC[C@@H](C(=O)N[C@@H](Cc2ccccc2)C(=O)N[C@H](C(=O)N[C@@H](CC(N)=O)C(=O)N[C@@H](Cc2c[nH]c3ccccc23)C(=O)N[C@@H](CC(C)C)C(=O)N[C@@H](CC(C)C)C(=O)N[C@@H](C)C(=O)NCC(=O)NCC(=O)N2CCC[C@H]2C(=O)N[C@@H](CO)C(=O)N[C@@H](CO)C(=O)NCC(=O)N[C@@H](C)C(=O)N2CCC[C@H]2C(=O)N2CCC[C@H]2C(=O)N2CCC[C@H]2C(=O)N[C@@H](CO)C(N)=O)C(C)C)NC(=O)C(C)(C)NC(=O)[C@H](C)NC(=O)[C@H](C)NC(=O)[C@H](CCC(N)=O)NC(=O)[C@H](CCCCN)NC(=O)[C@H](CC(=O)O)NC1=O [mCMD307, YAibEGT-FTSDY-SIYXD-KQAAAib-XFVNW-LLAGG-PSSGA-PPPS-NH2 (where each X is K)]
Area under the peak (%) [1]: 53%
Area under the peak (%) [2]: 87%
remaining at 24 h (in vitro): 92%

CC[C@H](C)[C@H](NC(=O)[C@H](CC(C)C)NC(=O)[C@H](Cc1c[nH]c2ccccc12)NC(=O)[C@@H]1CSCC(=O)NCCN(C(=O)CCC(=O)NCCOCCOCCC(=O)NCCOCCOCCC(=O)NCCCC[C@H](NC(=O)CCCCCCCCCCCCCCCCC(=O)O)C(=O)O)CCNC(=O)CSC[C@H](NC(=O)[C@H](CCCCN)NC(=O)[C@H](CC(=O)O)NC(=O)[C@H](CC(C)C)NC(=O)[C@H](Cc2ccc(O)cc2)NC(=O)[C@@H](NC(=O)[C@H](CO)NC(=O)[C@H](Cc2ccc(O)cc2)NC(=O)[C@H](CC(=O)O)NC(=O)[C@H](CO)NC(=O)[C@@H](NC(=O)[C@H](Cc2ccccc2)NC(=O)[C@@H](NC(=O)CNC(=O)[C@H](CCC(=O)O)NC(=O)C(C)(C)NC(=O)[C@@H](N)Cc2ccc(O)cc2)[C@@H](C)O)[C@@H](C)O)[C@@H](C)CC)C(=O)N[C@@H](C)C(=O)N[C@@H](C)C(=O)NC(C)(C)C(=O)N[C@@H](CCC(=O)O)C(=O)N[C@@H](Cc2ccccc2)C(=O)N[C@@H](C(C)C)C(=O)N1)C(=O)N[C@@H](C)C(=O)NCC(=O)NCC(=O)N1CCC[C@H]1C(=O)N[C@@H](CO)C(=O)N[C@@H](CO)C(=O)NCC(=O)N[C@@H](C)C(=O)N1CCC[C@H]1C(=O)N1CCC[C@H]1C(=O)N1CCC[C@H]1C(=O)N[C@@H](CO)C(N)=O [mCMZ371, YAibEGT-FTSDY-SIYLD-KXAAAib-EFVXW-LIAGG-PSSGA-PPPS-NH2 (where each X is C)]
t1/2 in cynomolgus monkeys [3]: long t1/2
Tlast ([3]; iv): 240 h
Tlast ([3]; sc): 240 h
AUC compared with mCMZ370 ([4]; 1 mg/kg I.V. or S.C.): significantly larger area under the curve
half-life compared with mCMZ370 ([4]; 1 mg/kg I.V. or S.C.): longer half-life
Tlast ([4]; 1 mg/kg I.V., individual animals): 72 h
AUC—%Extrap—pred [4, 6]: 0.75%
Cl—pred [4, 6]: 2.76 mL/h/kg and 2.46 mL/h/kg
Tlast ([4]; 1 mg/kg S.C., individual animals): 72 h
Cl—Fpred [4, 7]: 7.2 mL/h/kg and 4.8 mL/h/kg and 14.4 mL/h/kg
V—F—pred [4, 7]: 0.06 L/kg and 0.12 L/kg and 0.08 L/kg
Vd ([4]; in vivo, iv, 1 mg/kg I.V., individual animals, read-out: Vss—pred): 0.054 L/kg
clearance ([4]; mouse, in vivo, iv, 1 mg/kg, 1 mg/kg I.V., individual animals, read-out: Cl—pred): 2.88 mL/h/kg
t1/2 in dogs [5]: long t1/2
Tlast ([5]; iv): 240 h
Tlast ([5]; sc): 240 h

CC[C@H](C)[C@H](NC(=O)[C@H](CC(C)C)NC(=O)[C@H](Cc1c[nH]c2ccccc12)NC(=O)[C@@H]1CSCC(=O)NCCN(C(=O)CCC(=O)NCCOCCOCCC(=O)NCCOCCOCCC(=O)NCCCC[C@H](NC(=O)CCCCCCCCCCCCCCCCCCC(=O)O)C(=O)O)CCNC(=O)CSC[C@H](NC(=O)[C@H](CCCCN)NC(=O)[C@H](CC(=O)O)NC(=O)[C@H](CC(C)C)NC(=O)[C@H](Cc2ccc(O)cc2)NC(=O)[C@@H](NC(=O)[C@H](CO)NC(=O)[C@H](Cc2ccc(O)cc2)NC(=O)[C@H](CC(=O)O)NC(=O)[C@H](CO)NC(=O)[C@@H](NC(=O)[C@H](Cc2ccccc2)NC(=O)[C@@H](NC(=O)CNC(=O)[C@H](CCC(=O)O)NC(=O)C(C)(C)NC(=O)[C@@H](N)Cc2ccc(O)cc2)[C@@H](C)O)[C@@H](C)O)[C@@H](C)CC)C(=O)N[C@@H](C)C(=O)N[C@@H](C)C(=O)NC(C)(C)C(=O)N[C@@H](CCC(=O)O)C(=O)N[C@@H](Cc2ccccc2)C(=O)N[C@@H](C(C)C)C(=O)N1)C(=O)N[C@@H](C)C(=O)NCC(=O)NCC(=O)N1CCC[C@H]1C(=O)N[C@@H](CO)C(=O)N[C@@H](CO)C(=O)NCC(=O)N[C@@H](C)C(=O)N1CCC[C@H]1C(=O)N1CCC[C@H]1C(=O)N1CCC[C@H]1C(=O)N[C@@H](CO)C(N)=O [mCMV268, YAibEGT-FTSDY-SIYLD-KXAAAib-EFVXW-LIAGG-PSSGA-PPPS-NH2 (where each X is C)]
Bioavailability ([5]; po): 0.27%, 0.27%,

Semaglutide
effects on glucose tolerance at 10 nmol/kg (normal mice): indistinguishable effects on glucose tolerance
glucose tolerance (OGTT) 96 h after administration (wild-type mice): did not exhibit any improvement over the vehicle
